The values below come from patent US20240156790A1, “COMPOUNDS, COMPOSITIONS, AND METHODS FOR MODULATING FERROPTOSIS AND TREATING EXCITOTOXIC DISORDERS” (THE TRUSTEES OF COLUMBIA UNIVERSITY IN THE CITY OF NEW YORK, priority 2018, published 2024).

The structures appear in SMILES notation. “Also recorded” adds a separate entry of the source.

A short description of data set [1]: Microsomal Stability Assay (Examples 6 and 8). The format is in vitro ADME, mouse. As to conditions: for microsomal stability / half-life, in words: assessed over two hours; for half-life at 20 µM: CD-1, mouse, liver microsomes, pH 7.4, text, read-out: half-life in mouse liver microsomes. On the procedure:
(§1) To a 96-well polypropylene plate was added phosphate buffer (182.2 μL, pH 7.4, 100 mM) followed by addition of NADPH-regenerating system solution A (10 μL), and NADPH regenerating system solution B (2 μL) (Corning Gentest 3P NADPH regenerating system solution A (#451220) and B (#451200)). A stock solution of analog (0.8 μL. 5 mM) or fer-1 (positive control) was added and the mixture was warmed to 37° C. for 5 min. Mouse microsomes (CD-1, 20 mg/mL, Life Technologies) (5 μL, thawed in 37° C. water bath before use) were added. The resulting reaction mixture was kept at 37° C. with gentle agitation for the duration of the experiment. At selected time points (0, 1, 5, 10, 20, 30, 60 and 120 min) aliquots (15 μL) were withdrawn from the plate and quenched upon addition to cold methanol (60 μL), containing an internal standard (5 μM) in a separate 96-well polypropylene plate. At the completion of the final time-point, the samples were centrifuged at 4,000 rpm for 5 min at 4° C. The supernatant (40 μL) was withdrawn and transferred to a sample vial with insert. The samples were analyzed by LC-MS. LC-MS analysis was performed on a platform comprising a Thermo Scientific Dionex Ultimate 3000 and a Bruker amaZon SL equipped with an electrospray ionization source controlled by Bruker Hystar 3.2. Chromatographic separation was performed by injecting 5 μL of the sample onto an Agilent Eclipse Plus C18 column (2.1×50 mm, 3.5 μm) maintained at 20° C. The flow rate was maintained at 400 μL/min. The initial flow conditions were 80% solvent A (water containing 0.1% acetic acid) and 20% solvent B (methanol containing 0.1% acetic acid). Solvent B was raised to 80% over 0.50 min by 1.50 min. Solvent B was raised to 100% by 5.00 min and held there for 3.25 min. […] All analogs were detected in positive mode as [M+H]*. The percent of compound remaining at each time-point was calculated as the ratio of the integrated compound peak over the internal standard peak and standardized to the t=0 time-point. Values were plotted in GraphPad Prism 9 and fit with a one phase decay.
as §1, with “and NADPH-regenerating” for “and NADPH regenerating”, “rpm (1872 g)” for “rpm”, “[M+H]*. […]” for “[M+H]*. The percent of compound remaining at each time-point was calculated as the ratio of the integrated compound peak over the internal standard peak and standardized to the t=0 time-point. Values were plotted in GraphPad Prism 9 and fit with a one phase decay.”
In general terms: Microsomes from liver hold many membrane-bound enzymes, among them those of drug oxidation.

For data set [2], the system named is HT-1080 cells. In words: Cell viability assays in HT-1080 cells, ferroptosis induced by IKE or RSL3 (Example 8). The data set is classed as cell-based. As to conditions: for IC50: Homo sapiens, HT-1080, 48 h. As to the method: Cell culture assays were incubated at 37° C. with 5% CO2. HT-1080 cells were grown in DMEM (Corning) supplemented with 10% FBS (Life Technologies), 1% Penicillin-Streptomycin 10,000 U/mL (Gibco), and 1% MEM Non-Essential Amino Acids Solution 100× (Gibco). For cell viability assays, cells were trypsinized, counted, and seeded into 384-well white polypropylene plates at 1,000 cells/well, unless otherwise specified. After allowing cells to adhere overnight, compounds in DMSO stocks were arrayed in a 16-point dilution series prepared in a mother plate, and treated from a daughter plate, [DMSO]=0.28%. After 24 or 48 h, 50% CellTiter-Glo (Promega) 50% cell culture medium was added to each well and incubated at room temperature with shaking for 15 min. Luminescence was measured using a Victor X5 plate reader (PerkinElmer). All cell viability data were normalized to the DMSO vehicle condition. […] All 384w measurements were performed in triplicate
We first evaluated the efficacy of four pyridine analogs, TH-2-9-1, TH-2-31, TH-2-37-1, and TH-2-37-2, in suppressing ferroptosis induced by IKE and RSL3 in HT-1080 cells. […] We sought to determine whether incorporation of pyridine changed stability in mouse liver microsomes.

The nature of data set [3]: TH-2-31, TH-4-55-2, TH-4-67 PK Study (IP, IV, PO; plasma and brain). The format is in vivo, C57BL/6 mice. As to conditions: mouse, in vivo. On the procedure: C57BL/6 mice (8-weeks of age and ˜25 g weight) were weighed before injection and divided into groups of two male and female mice per cage. Compound was dissolved in 5% DMSO/95% of 1:1 [(65% v/v of 25% w/v 2-hydroxypropyl-3-cyclodextrin (Cayman Chemical) dissolved in 20% EtOH, 30% v/v Poly(ethylene glycol)-400 (Sigma Aldrich 202398), 5% v/v Tween 80 (Fluka 59924)):MilliQ water] to create a 2 mg/mL solution. The same formulation without compound was used as a vehicle control. The solution was sterilized using a […] Steriflip filter unit (Thomas Scientific 1189Q46). Mice were dosed IP, IV, and PO routes of administration and euthanized by CO2 asphyxiation for 3 min at 0, 1, 2, 4, 8, and 24 h after administration. To ensure that the vehicle was well-tolerated 4 mice were treated with vehicle and euthanized 4 h after administration. ˜0.5 mL of blood was collected via cardiac puncture and immediately put in K3 EDTA microtubes ([…] 41.1504.105) and kept on ice. Organs were harvested, placed in Eppendorf tubes, and frozen on dry ice. Blood samples were centrifuged for 10 min at 2,100×g at 4° C., then plasma was transferred to a clean tube and frozen on dry ice. Organ samples were weighed and placed in hard tissue homogenizing tubes (Omni International 19-628) and a volume of DEPC-treated nuclease-free water (IBI Scientific IB42200) was added to make a 500 mg/mL solution and homogenized using the Omni Bead Ruptor 4 at speed 5 for 30 seconds. Compound was extracted from plasma or organ homogenate by adding 900 μL acetonitrile to 100 μL plasma or organ homogenate. Samples were mixed by vortexing and allowed to extract overnight at 4° C. prior to mixing for at least 5 min by rotating at room temperature, vortexing, and sonicating for at least 30 second prior to centrifugation for 10 min at 4,000×g and 4° C. The supernatant was then transferred to a glass vial and analyzed by UPLC-MS described below. The concentration of each analog was determined against a standard curve with a nonlinear fit and the data plot in GraphPad Prism 9 and fit with a one phase decay.
Samples from animal studies were analyzed via UPLC-MS using a Waters Xevo G2-Xs QTof Mass spectrometer equipped with an Acquity UPLC. Chromatographic separation was carried out at 50° C. on a Acquity UPLC BEH C18 column (1.7 μm, 2.1 mm×50 mm, pore size 130 Å) over a 4.5 min gradient elution. The flowrate was held constant at 0.8 mL/min. Mobile phase A consisted of water and mobile phase B consisted of ACN both containing 0.1% formic acid. After injection, the gradient was held at 50% A for 0.25 min. For the next minute, the gradient was ramped in a linear fashion to 100% B and held at this composition for 0.5 min. The eluent composition returned to the initial condition in 0.01 min and the column was re-equilibrated for 2.74 min before the next injection. Injection volumes were 0.5 μL (TH-2-31 40 mg/kg) and 1 μL for all other conditions. The Xevo G2-Xs was operated in positive electrospray ionization (ESI) mode. A capillary voltage and sampling cone voltage of 0.5 kV and 30 V were used. The source and desolvation temperatures were kept at 120° C. and […], respectively. Nitrogen was used as the desolvation gas with a flowrate of 750 L/hr. The protonated molecular ion of leucine encephalin ([M+H]^+, m/z 556.2771 was used as a lock mass for mass accuracy and reproducibility. Leucine enkephalin was introduced to the lock mass at a concentration of 2 ng/mL (50% ACN containing 0.1% formic acid), and a flow rate of […]. To avoid signal saturation, the signal transmission was attenuated to <10%, based off the signal intensity of the highest standard concentration for the duration of the run. The data was collected over the mass range m/z 50 to 1200 Da with an acquisition time of 0.1 seconds per scan. The retention time for each analog is detailed below. […]

In data set [4] the test system is N27 rat dopaminergic cells. In words: Suppression of ferroptosis induced by RSL3 in N27 cells (CellTiter-Glo viability). The format is cell-based. Conditions: Rattus norvegicus, N27, 24 h, Table 3; ^d 24 hr treatment, 1,000 cells/well seeded; read-out: IC50.
Where [5] appears, read: ^b 2 μM IKE, 48 hours, 1,000 cells/well.
[6] abbreviates: ^c 0.2 μM RSL3, 48 hours, 1,000 cells/well.

`Cc1cccc(C)c1CNc1cc(C(=O)OC(C)(C)C)ccc1NC12CC3CC(CC(C3)C1)C2` [DL047, tert-butyl 4-(((3s,5s,7s)-adamantan-1-yl)amino)-3-((2,6-dimethylbenzyl)amino)benzoate]: the “microsomal stability / half-life, in words” value in data set [1] is recorded as “half-lives greater than two hours”. Besides, the “potency relative to fer-1 at suppressing ferroptosis, in words” value in data set [2] is given as “less potent than fer-1”.

As to `CC(C)(C)OC(=O)c1ccc(NC23CC4CC(CC(C4)C2)C3)c(NC2CCCCC2)c1` [DL032, tert-butyl 4-(((3s,5s,7s)-adamantan-1-yl)amino)-3-(cyclohexylamino)benzoate], the “microsomal stability / half-life, in words” value in data set [1] is listed as “half-lives greater than two hours”. Further, the “potency relative to fer-1 at suppressing ferroptosis, in words” value in data set [2] is on record as “more potent than fer-1”.

Usually half-life stands for the time in which the quantity being followed falls by half. `Nc1cc(-c2ncco2)ccc1NC1CCCCC1` [PHB4051, N1-cyclohexyl-4-(oxazol-2-yl)benzene-1,2-diamine]: in data set [1], the half-life at 20 µM is less than 1 h and the “microsomal stability / half-life, in words” value is reported as “the least stable compound”. In data set [2], the “potency relative to fer-1 at suppressing ferroptosis, in words” value is given as “more potent than fer-1”.

For the compound `CC(C)(C)OC(=O)c1ccc(NC2CCCCC2)c(Nc2ccccc2)c1` [PHB4081, tert-butyl 4-(cyclohexylamino)-3-(phenylamino)benzoate], in data set [1], the half-life at 20 µM was less than 1 h.

By IC50 is commonly meant the point on the concentration scale where inhibition reaches its midpoint. For the compound `Cc1noc(-c2cc(NC3CCCCC3)cnc2NC2CCCCC2)n1` [TH-2-37-1, N^2,N^5-dicyclohexyl-3-(3-methyl-1,2,4-oxadiazol-5-yl)pyridine-2,5-diamine], the “potency relative to fer-1 at suppressing ferroptosis, in words” value in data set [2] was “potencies greater than fer-1”. In addition, the IC50 in data set [2] (setting [5]) is 7.5 nM; in data set [2] (setting [6]) it was 4.3 nM.

On to `Cc1cc(NC23CC4CC(CC(C4)C2)C3)c(N)cc1C(=O)OC(C)(C)C` [AZIII4, tert-butyl 4-(((3s,5s,7s)-adamantan-1-yl)amino)-5-amino-2-methylbenzoate], for which the half-life at 20 µM in data set [1] was less than 1 h.

As to `Cc1noc(-c2cc(NC(C)C)cnc2NC2CCCCC2)n1` [TH-2-37-2, N^2-cyclohexyl-N^5-isopropyl-3-(3-methyl-1,2,4-oxadiazol-5-yl)pyridine-2,5-diamine], the “potency relative to fer-1 at suppressing ferroptosis, in words” value in data set [2] is on record as “potencies greater than fer-1”. Further, the IC50 in data set [2] (setting [5]) amounted to 5.4 nM; in data set [2] (setting [6]), 3.8 nM.

For `Cc1noc(-c2ccc(NC3CCCCC3)c(N)c2)n1` [PHB4078, N1-cyclohexyl-4-(3-methyl-1,2,4-oxadiazol-5-yl)benzene-1,2-diamine], in data set [1], the half-life at 20 µM is less than 1 h.

As to `Cc1noc(-c2ccc(NC34CC5CC(CC(C5)C3)C4)c(N)c2)n1` [PHB4066, N1-((3s,5s,7s)-adamantan-1-yl)-4-(3-methyl-1,2,4-oxadiazol-5-yl)benzene-1,2-diamine], in data set [1], the half-life at 20 µM was less than 1 h.

On to `Cc1noc(-c2cnc(NC34CC5CC(CC(C5)C3)C4)c(NC3CCCCC3)c2)n1` [TH-4-100-2, N^2-((3s,5s,7s)-adamantan-1-yl)-N^3-cyclohexyl-5-(3-methyl-1,2,4-oxadiazol-5-yl) pyridine-2,3-diamine], for which, in data set [3], the “tolerability / adverse observations after dosing” value is “less impaired immediately following injection and recovered more quickly; also recorded: less impaired immediately following injection and recovered quicker”. In addition, in data set [4], the IC50 turned out to be 18.9 nM.

As for `CC(C)(C)OC(=O)c1cc(N)c(NC23CC4CC(CC(C4)C2)C3)cc1F` [AZII78, tert-butyl 4-(((3s,5s,7s)-adamantan-1-yl)amino)-5-amino-2-fluorobenzoate], the half-life at 20 µM in data set [1] was less than 1 h.
